Reference: patent US20230391748A1, “BICYCLIC INHIBITORS OF IRAK” (priority 2022, published 2023)

What was measured:
[1] = test system: TNF-α in Human Primary Monocyte-Derived Dendritic Cells; experiment: Gardiquimod-Induced TNF-α in Human Primary Monocyte-Derived Dendritic Cells; assay type: cell-based; settings: Dendritic cell, IFNγ-primed monocyte-derived dendritic cells, 4 μg/ml Gardiquimod, 6 hours, TNF-α ELISA, read-out: TNFα (DC, GARD) (IC50)
Description: Gardiquimod-Induced TNF-α in Human Primary Monocyte-Derived Dendritic Cells
After 2 hours, the media including floating cells was carefully removed and 12 ml of fresh RPMI media (10% FBS) containing GM-CSF (100 ng/ml) and IL-4 (20 ng/ml) were added to the adherent monocytes. The monocytes were allowed to differentiate for 7 days at 37° C., 5% CO2 for 7 days, supplementing with fresh GM-CSF and IL-4 after 3 days. The differentiated dendritic cells (DC) were harvested by centrifugation (1200 rpm/5 min). The DCs were primed at 37° C., 5% CO2 for 24 hours with 50 ng/ml IFN-γ (1000 U/ml) at 50K/well in 100 μl/well of fresh RPMI media (10% FBS) in a white clear bottom 96 well plate.
The primed DCs were pre-incubated with test compound for 1 hour at 37° C., 5% CO2 by adding 100 μl of RPMI media containing 2× concentrated test compound per well (0.5% final DMSO concentration).
DCs were stimulated with Gardiquimod (10 μl per well of 20× concentrated Gardiquimod solution in RPMI media to give a final concentration of 4 μg/ml) at 37° C., 5% CO2 for an additional 6 hours. The supernatant (100 μl/well) was harvested to measure TNF-α by ELISA. […] The chemiluminescence values were entered into Athena (Rigel) for curve fitting, EC50 calculation, and database storage.
(§1) TNF-α ELISA was performed according to the vendor protocol, using 96 Well Flat-Bottom, MaxiSorp Black Immuno plates and 100 μL/well of supernatant. The plates were developed using 100 μL/well of Super Signal ELISA Pico Chemiluminescent Substrate. The plates were read with a luminometer, and the chemiluminescence values were entered into Athena (Rigel) for curve fitting, EC50 calculation, and database storage.

[2] = test system: IL23p19 in THP-1 Cells; experiment: LPS Induced IL23p19 in THP-1 Cells (with IFNγ Primed) Assay; assay type: cell-based; settings: Homo sapiens, THP-1, 18 h, read-out: IL23 (THP, LPS) (IC50, μM)
Description: LPS Induced IL23p19 in THP-1 Cells (with IFNγ Primed) Assay
On day 1, 50K/well THP-1 cells were seeded and primed with IFNγ (50 ng/mL) in 384-well plates for about 18 hours in RPMI media with 10% FBS. […] 50 μL/well 2× compound was added to 50 μL/well THP-1 cells (with IFNγ primed) in duplicate in 384 well tissue culture plates. […] Day 3, after stimulation for 18 hours at 37° C., 5% CO2, the assay plate was centrifuged and 70 μL/well supernatant was harvested. IL-23p19 protein in 70 µL/well of supernatant was measured by sandwich ELISA, and 25 μl/well Cell Titer Glo reagent was added to the remaining cells to measure compound toxicity.
Maxisorp immuno ELISA plates were pre-coated with 25 μL/well of anti-IL-23p19 capture antibody (2.5 ug/mL) in PBS overnight at room temperature. […] 25 μL/well of biotin labeled anti-IL-12(p40/p70) detection antibody (100 ng/mL) in PBS with 1% BSA was added and the plates were incubated at room temperature for 2 hours with shaking. […] The plates were read with a luminometer, and the chemiluminescence values were entered into Athena (Rigel) for curve fitting, EC50 calculation, and database storage.

[3] = target: IRAK4 (Homo sapiens (Human), UniProt Q9NWZ3); experiment: IRAK4 ADP-Glo Assay; assay type: biochemical; settings: MBP substrate
Description: The ADP-Glo™ reagents were thawed at ambient temperature. The Kinase Detection Reagent was prepared by mixing kinase detection buffer with the lyophilized kinase detection substrate, and set aside.
A stock volume of 5× Reaction Kinase Buffer was made with a final concentration of 100 mM MgCl2, 200 mM Tris-HCl, and 0.5 mg/ml of BSA, in distilled H2O with a final pH7.4. A 2× working stock volume of Reaction Kinase Buffer was made containing a final concentration of 100 μM DTT.
The components of IRAK4 Enzyme were thawed on ice. Diluted IRAK4 in 1× Kinase Reaction Buffer (diluted from 2× buffer) was prepared at 5.0 ng/μl.
Then diluted 1:5 in 2× Reaction Buffer in a 96 well plate. 1.0 μl was transferred to a 384 well plate in duplicate. […] 1 μl of 1 mg/ml stock solution of MBP substrate was added NOTE: MBP can be combined with ATP mix with equal volume and then added at 2 μl/well. Final reaction volume was 5 μl.
The plate was centrifuged and the reaction mixture was incubated at room temperature for 60 minutes or at 30° C. for 30 minutes.
The reaction was terminated and the remaining ATP was depleted by adding 5 μl of ADP-Glo™ Reagent. The 384-well plate was centrifuged and then the reaction mixture was incubated for another 40 minutes at ambient temperature.
10 μl of the Kinase Detection Reagent was added. The plate was centrifuged and then the reaction mixture was incubated for another 30 minutes at ambient temperature.
The 384-well reaction plate was read using the WALLAC plate reader (Luminescence 0.1s).

[4] = test system: TNF-α in human PBMCs; experiment: R848-induced TNF-α in human PBMCs Assay; assay type: cell-based; settings: Homo sapiens, PBMC, 4 h, read-out: TNFα (PBMC, R848) (IC50, μM)
Description: R848-induced TNF-α in human PBMCs Assay
100 μL/well PBMCs (200K/well) were seeded in 96-well flat-bottom tissue culture plates. […] 100 μL/well 2× compound was added to the PBMC in the tissue culture plates. […] The cells were stimulated with R848 for an additional 4 hours at 37° C., 5% CO2. The supernatant (100 μl/well) was harvested to measure TNF-α by ELISA. […] The chemiluminescence values were entered into Athena (Rigel) for curve fitting, EC50 calculation, and database storage.
as §1

Chain of IRAK4 (Q9NWZ3 whole entry): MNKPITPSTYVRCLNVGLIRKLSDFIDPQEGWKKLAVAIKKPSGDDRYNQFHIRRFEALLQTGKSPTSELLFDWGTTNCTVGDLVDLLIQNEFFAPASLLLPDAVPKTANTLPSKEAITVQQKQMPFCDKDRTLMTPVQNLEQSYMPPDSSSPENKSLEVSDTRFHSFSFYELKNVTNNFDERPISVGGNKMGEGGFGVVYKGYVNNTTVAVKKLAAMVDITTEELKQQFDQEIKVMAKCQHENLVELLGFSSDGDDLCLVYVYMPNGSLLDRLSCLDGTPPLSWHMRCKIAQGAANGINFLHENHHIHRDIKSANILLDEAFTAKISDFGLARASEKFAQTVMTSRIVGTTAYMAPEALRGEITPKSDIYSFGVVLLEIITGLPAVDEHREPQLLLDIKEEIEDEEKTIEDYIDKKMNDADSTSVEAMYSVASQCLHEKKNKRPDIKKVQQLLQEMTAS

Structure (SMILES)	IC50 [1] [nM]	IC50 [2] [µM]	IC50 [3] [nM]	IC50 [4] [µM]
CC(C)Oc1cc2c(OC[C@@H]3CC(F)(F)C(=O)N3)ncc(-c3cnn(C4CCN(C(=O)OC(C)(C)C)CC4)c3)c2cc1C(N)=O [Compound I-74, tert-butyl (S)-4-(4-(6-carbamoyl-1-((4,4-difluoro-5-oxopyrrolidin-2-yl)methoxy)-7-isopropoxyisoquinolin-4-yl)-1H-pyrazol-1-yl)piperidine-1-carboxylate]	493	0.395	11.2	0.141
CC(C)Oc1cc2c(OC[C@@H]3CCC(=O)N3)ncc(C#CC3(O)CCCC3)c2cc1C(N)=O [Compound I-9, (S)-4-((1-hydroxycyclopentyl)ethynyl)-7-isopropoxy-1-((5-oxopyrrolidin-2-yl)methoxy)isoquinoline-6-carboxamide]	210	0.394	9.9	0.319
CC(C)Oc1cc2c(O[C@@H]3CCCNC3)ncc(-c3cnn(C4CCCC4)c3)c2cc1C(N)=O [Compound I-110, (R)-4-(1-cyclopentyl-1H-pyrazol-4-yl)-7-isopropoxy-1-(piperidin-3-yloxy)isoquinoline-6-carboxamide]	1790	24.7	123	2.44
CC(C)Oc1cc2c(OC[C@@H]3CCC(=O)N3)ncc(-c3cnn(CCN4CCOCC4)c3)c2cc1C(N)=O [Compound I-38, (S)-7-isopropoxy-4-(1-(2-morpholinoethyl)-1H-pyrazol-4-yl)-1-((5-oxopyrrolidin-2-yl)methoxy)isoquinoline-6-carboxamide]	4030	3.41	21	1.49
CC(C)Oc1cc2c(O[C@@H]3CCCN(C(=O)CC#N)C3)ncc(-c3cnn(C4CCN(C(=O)OC(C)(C)C)CC4)c3)c2cc1C(N)=O [Compound I-121, tert-butyl (R)-4-(4-(6-carbamoyl-1-((1-(2-cyanoacetyl)piperidin-3-yl)oxy)-7-isopropoxyisoquinolin-4-yl)-1H-pyrazol-1-yl)piperidine-1-carboxylate]	1020	1.9	12.9	1.76
CC(C)Oc1cc2c(O[C@@H]3CCCNC3)ncc(-c3cnn(C4CCC4)c3)c2cc1C(N)=O [Compound I-109, (R)-4-(1-cyclobutyl-1H-pyrazol-4-yl)-7-isopropoxy-1-(piperidin-3-yloxy)isoquinoline-6-carboxamide]	1440	34.9	171	2.55
CCO[C@H]1CC[C@@H](C#Cc2cnc(O[C@@H]3CCCN(C(=O)CC#N)C3)c3cc(OC(C)C)c(C(N)=O)cc23)CC1 [Compound I-99, 1-(((R)-1-(2-cyanoacetyl)piperidin-3-yl)oxy)-4-((cis-4-ethoxycyclohexyl)ethynyl)-7-isopropoxyisoquinoline-6-carboxamide]	366	0.483	23.1	0.555
CC(C)Oc1cc2c(OC[C@@H]3CCC(=O)N3)ncc(-c3cnn(CC4CCOCC4)c3)c2cc1C(N)=O [Compound I-36, (S)-7-isopropoxy-1-((5-oxopyrrolidin-2-yl)methoxy)-4-(1-((tetrahydro-2H-pyran-4-yl)methyl)-1H-pyrazol-4-yl)isoquinoline-6-carboxamide]	398	0.976	13.5	0.377
CC(C)Oc1cc2c(OC[C@@H]3CC(F)(F)C(=O)N3)ncc(-c3cnn(CC4CCOCC4)c3)c2cc1C(N)=O [Compound I-71, (S)-1-((4,4-difluoro-5-oxopyrrolidin-2-yl)methoxy)-7-isopropoxy-4-(1-((tetrahydro-2H-pyran-4-yl)methyl)-1H-pyrazol-4-yl)isoquinoline-6-carboxamide]	148	0.848	6.4	0.174
